In US11203574B2 (BioCryst Pharmaceuticals, Inc., priority 2014, dated 2021):

Tested on: hereditary angioedema (HAE)
Assay: not given
Conditions: bradykinin B2 receptor antagonist; cited from earlier work

| Structure (SMILES) | treatment of HAE |
| --- | --- |
| NC(N)=NCCC[C@@H](N)C(=O)N[C@@H](CCCN=C(N)N)C(=O)N1CCC[C@H]1C(=O)N1C[C@H](O)C[C@H]1C(=O)NCC(=O)N[C@@H](Cc1cccs1)C(=O)N[C@@H](CO)C(=O)N1Cc2ccccc2C[C@@H]1C(=O)N1[C@H](C(=O)N[C@@H](CCCN=C(N)N)C(=O)O)C[C@@H]2CCCC[C@@H]21 [Icatibant] | effective in treating HAE |

Biological target: human plasma kallikrein (Homo sapiens (Human), UniProt P03952)
Sequence (P03952 whole entry, looked up): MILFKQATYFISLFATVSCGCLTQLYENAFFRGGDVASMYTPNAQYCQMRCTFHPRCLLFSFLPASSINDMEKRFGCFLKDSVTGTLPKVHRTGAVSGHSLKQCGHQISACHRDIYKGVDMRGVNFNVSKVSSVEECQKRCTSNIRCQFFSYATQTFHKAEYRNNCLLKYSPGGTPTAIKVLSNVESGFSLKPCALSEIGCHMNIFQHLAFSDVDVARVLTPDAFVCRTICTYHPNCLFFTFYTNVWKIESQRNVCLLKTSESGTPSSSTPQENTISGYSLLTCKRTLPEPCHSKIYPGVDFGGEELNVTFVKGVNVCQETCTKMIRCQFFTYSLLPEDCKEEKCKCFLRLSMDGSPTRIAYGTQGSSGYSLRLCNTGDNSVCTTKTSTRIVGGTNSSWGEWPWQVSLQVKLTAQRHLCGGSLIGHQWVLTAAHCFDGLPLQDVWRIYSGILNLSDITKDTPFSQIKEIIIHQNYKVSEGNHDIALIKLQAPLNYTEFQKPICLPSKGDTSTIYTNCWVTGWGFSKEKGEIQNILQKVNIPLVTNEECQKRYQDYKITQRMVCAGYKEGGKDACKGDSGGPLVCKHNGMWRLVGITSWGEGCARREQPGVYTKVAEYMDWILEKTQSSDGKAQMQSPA
Sequence (P03952 whole entry partner, looked up): as the sequence (P03952 whole entry, looked up) above
Assay: Plasma kallikrein activity assay (chromogenic substrate S2302)
Assay type: biochemical
Conditions: 2 nM kallikrein, 80 μM S2302, 30° C., pH 7.8; Ki by Cheng-Prusoff equation; values given as ranges; read-out: Ki

| Structure (SMILES) | Ki |
| --- | --- |
| N#Cc1cc(C(=O)Nc2cc(C(NCC3CC3)c3ccccc3)ccc2F)n(-c2cccc(CN)c2)n1 (single isomer, unassigned; (-)) [240b, (−)-1-(3-(aminomethyl)phenyl)-3-cyano-N-(5-((cyclopropylmethylamino)(phenyl)methyl)-2-fluorophenyl)-1H-pyrazole-5-carboxamide] | 0.1 to 50 nM |
| NCc1cccc(-n2nc(C(F)(F)F)cc2C(=O)Nc2cc(C(N)(CCC3CC3)c3ccncc3)ccc2F)c1 (single isomer, unassigned; (-)) [217d, (−)-N-(5-(1-amino-3-cyclopropyl-1-(pyridin-4-yl)propyl)-2-fluorophenyl)-1-(3-(aminomethyl)phenyl)-3-(trifluoromethyl)-1H-pyrazole-5-carboxamide] | 50 to 100 nM |
| NCc1cccc(-n2nc(C(F)(F)F)cc2C(=O)Nc2cc(C(N)(CCC3CC3)c3ccc(C(N)=O)nc3)ccc2F)c1 (single isomer, unassigned; (+)) [221i, (+)-5-(1-amino-1-(3-(1-(3-(aminomethyl)phenyl)-3-(trifluoromethyl)-1H-pyrazole-5-carboxamido)-4-fluorophenyl)-3-cyclopropylpropyl)picolinamide] | 0.1 to 50 nM |
| CS(=O)(=O)c1ccccc1C(NCC1CC1)c1cccc(NC(=O)c2cc(C(F)(F)F)nn2-c2cccc(CN)c2)c1 (stereo not drawn) [121f, 1-(3-(aminomethyl)phenyl)-N-(3-((cyclopropylmethylamino)(2-(methylsulfonyl)phenyl)methyl)phenyl)-3-(trifluoromethyl)-1H-pyrazole-5-carboxamide] | 0.1 to 50 nM |
| NCc1cccc(-n2nc(C(F)(F)F)cc2C(=O)Nc2cccc(C(CCC3CC3)n3ccccc3=O)c2)c1 (stereo not drawn) [247c, 1-(3-(aminomethyl)phenyl)-N-(3-(3-cyclopropyl-1-(2-oxopyridin-1(2H)-yl)propyl)phenyl)-3-(trifluoromethyl)-1H-pyrazole-5-carboxamide] | 0.1 to 50 nM |
| NCc1cccc(-n2nc(C(F)(F)F)cc2C(=O)Nc2cccc(C(NC(=O)C3CC3)c3ccccc3)c2)c1 (stereo not drawn) [115e, 1-(3-(aminomethyl)phenyl)-N-(3-(cyclopropanecarboxamido(phenyl)methyl)phenyl)-3-(trifluoromethyl)-1H-pyrazole-5-carboxamide] | 50 to 100 nM |
| N#Cc1cccc(C(NCC2CC2)c2ccc(F)c(NC(=O)c3cc(C(F)(F)F)nn3-c3cccc(C(=N)N)c3)c2)c1 (single isomer, unassigned; (+)) [236h, (+)-1-(3-carbamimidoylphenyl)-N-(5-((3-cyanophenyl)(cyclopropylmethylamino)methyl)-2-fluorophenyl)-3-(trifluoromethyl)-1H-pyrazole-5-carboxamide] | 0.1 to 50 nM |
| NCc1cccc(-n2nc(C(F)(F)F)cc2C(=O)Nc2cccc(C(OCC3CC3)c3ccccc3)c2)c1 (single isomer, unassigned; (+)) [166e, (+)-1-(3-(aminomethyl)phenyl)-N-(3-((cyclopropylmethoxy)(phenyl)methyl)phenyl)-3-(trifluoromethyl)-1H-pyrazole-5-carboxamide] | 0.1 to 50 nM |
| Cc1ccc(C(NCC2CC2)c2cccc(NC(=O)c3cc(C(F)(F)F)nn3-c3cccc(CN)c3)c2)cc1 (stereo not drawn) [122g, 1-(3-(aminomethyl)phenyl)-N-(3-(((cyclopropylmethyl)amino)(p-tolyl)methyl)phenyl)-3-(trifluoromethyl)-1H-pyrazole-5-carboxamide] | 0.1 to 50 nM |
| Cc1ccc(C(NCC2CC2)c2cccc(NC(=O)c3cc(C(F)(F)F)nn3-c3cccc(CN)c3)c2)c(C)c1 (stereo not drawn) [201f, 1-(3-(aminomethyl)phenyl)-N-(3-(((cyclopropylmethyl)amino)(2,4-dimethylphenyl)methyl)phenyl)-3-(trifluoromethyl)-1H-pyrazole-5-carboxamide] | 0.1 to 50 nM |
| NCc1cccc(-n2nc(C(F)(F)F)cc2C(=O)Nc2cccc(C(NCC3CC3)c3cccc(C(F)(F)F)c3)c2)c1 (stereo not drawn) [111f, 1-(3-(Aminomethyl)phenyl)-N-(3-((cyclopropylmethylamino)(3-(trifluoromethyl)phenyl)methyl)phenyl)-3-(trifluoromethyl)-1H-pyrazole-5-carboxamide] | 0.1 to 50 nM |
| NCc1cccc(-n2nc(C(F)(F)F)cc2C(=O)Nc2cccc(C(O)(CCC3CC3)c3ccccc3)c2)c1 (racemic) [46g, 1-(3-(aminomethyl)phenyl)-N-(3-(3-cyclopropyl-1-hydroxy-1-phenylpropyl)phenyl)-3-(trifluoromethyl)-1H-pyrazole-5-carboxamide] | 0.1 to 50 nM |
| N#Cc1ccc(C(N)(CCC2CC2)c2ccc(F)c(NC(=O)c3cc(C(F)(F)F)nn3-c3cccc(C(=N)N)c3)c2)cc1 (single isomer, unassigned; (+)) [241a, (+)-N-(5-(1-amino-1-(4-cyanophenyl)-3-cyclopropylpropyl)-2-fluorophenyl)-1-(3-carbamimidoylphenyl)-3-(trifluoromethyl)-1H-pyrazole-5-carboxamide] | 0.1 to 50 nM |
| CCNCc1cccc(-n2nc(C(F)(F)F)cc2C(=O)Nc2cc(C(NCC3CC3)c3ccccc3)ccc2F)c1 (single isomer, unassigned; (-)) [270a, (−)-N-(5-((cyclopropylmethylamino)(phenyl)methyl)-2-fluorophenyl)-1-(3-((ethylamino)methyl)phenyl)-3-(trifluoromethyl)-1H-pyrazole-5-carboxamide] | 50 to 100 nM |
| NCc1cccc(-n2nc(C(F)(F)F)cc2C(=O)Nc2cccc(C(CCC3CC3)n3ccnc3)c2)c1 (stereo not drawn) [89g, 1-(3-(aminomethyl)phenyl)-N-(3-(3-cyclopropyl-1-(1H-imidazol-1-yl)propyl)phenyl)-3-(trifluoromethyl)-1H-pyrazole-5-carboxamide] | 0.1 to 50 nM |
| NCc1cccc(-n2nc(C(F)(F)F)cc2C(=O)Nc2cccc(C(OCC3CC3)c3ccccc3)c2)c1 (stereo not drawn) [18k, 1-(3-(aminomethyl)phenyl)-N-(3-((cyclopropylmethoxy)(phenyl)methyl)phenyl)-3-(trifluoromethyl)-1H-pyrazole-5-carboxamide] | 0.1 to 50 nM |
| Nc1nccc2ccc(-n3nc(C(=O)Nc4cc(C(N)(CCC5CC5)c5ccncc5)ccc4F)cc3C(F)(F)F)cc12 (single isomer, unassigned; (+)) [268g, (+)-N-(5-(1-amino-3-cyclopropyl-1-(pyridin-4-yl)propyl)-2-fluorophenyl)-1-(1-aminoisoquinolin-7-yl)-5-(trifluoromethyl)-1H-pyrazole-3-carboxamide] | 50 to 100 nM |
| CS(=O)(=O)c1cccc(C(NCC2CC2)c2cccc(NC(=O)c3cc(C(F)(F)F)nn3-c3cccc(CN)c3)c2)c1 (stereo not drawn) [114f, 1-(3-(aminomethyl)phenyl)-N-(3-((cyclopropylmethylamino)(3-(methylsulfonyl)phenyl)methyl)phenyl)-3-(trifluoromethyl)-1H-pyrazole-5-carboxamide] | 0.1 to 50 nM |
| NCc1cccc(-n2nc(C(F)(F)F)cc2C(=O)Nc2cccc(C(O)(CCC3CC3)c3ccncc3)c2)c1 (stereo not drawn) [92g, 1-(3-(aminomethyl)phenyl)-N-(3-(3-cyclopropyl-1-hydroxy-1-(pyridin-4-yl)propyl)phenyl)-3-(trifluoromethyl)-1H-pyrazole-5-carboxamide] | 0.1 to 50 nM |

Same assay, conditions: Ki, 2 nM kallikrein, 80 μM S2302, 30° C., pH 7.8; Ki by Cheng-Prusoff equation; values given as ranges

| Structure (SMILES) | Ki |
| --- | --- |
| NCc1cccc(-n2nc(C(F)(F)F)cc2C(=O)Nc2cccc(C(OCCC3CC3)c3ccccc3)c2)c1 (stereo not drawn) [74a, 1-(3-(aminomethyl)phenyl)-N-(3-((2-cyclopropylethoxy)(phenyl)methyl)phenyl)-3-(trifluoromethyl)-1H-pyrazole-5-carboxamide] | 0.1 to 50 nM |
